Laboratory results reported in PubChem BioAssay AID1963843 (Molecular Pharmacology Branch, DTP, NCI, 2024).

System: 616215-338-R-J1-PDC complex spheroid viability
Assay: Anticancer human tumor 616215-338-R-J1-PDC patient-derived colon adenocarcinoma cell line growth inhibition [POLQ]
Conditions: for IC50: curve of first compound; for viability, T/C: stronger effect = lower value
Method: Multicellular complex tumor spheroid response to Polymerase (POL) inhibitors (novobiocin, ART-558, RP6685) in combination with a variety of drugs and investigational agents in selected tumor cell lines
The POL inhibitors (novobiocin, ART-558, and RP6685) were evaluated both individually and in combination with standard of care and investigational anticancer small molecules within a complex spheroid model of solid tumors. . Complex spheroids include a stromal component modeled by human endothelial cells (HUVEC) and fibroblasts modeled by human mesenchymal stem cells (MSCs). The concentration ranges selected for each drug and investigational agent were based upon clinically achievable concentrations if the clinical Cmax of the agent was known.
Compounds. The drugs and investigational agents: novobiocin (NSC847541), ART-558 (NSC835418), RP-6685 (NSC848927), peposertib (NSC802822), ceralasertib (NSC780249), elimusertib (NSC800525), camonsertib (NSC841442), AZD-1390 (NSC803789), olaparib (NSC753686), talazoparib (NSC767125), rucaparib (NSC756644), sotorasib (NSC818433), MRTX-1133 (NSC836407), SN-38 (NSC673596), topotecan (NSC609699), epotoside (NSC141540), doxorubicin (NSC123127), gemcitabine (NSC613327), 5-fluorouracil (NSC19893), paclitaxel (NSC125973), vemurafenib (NSC761431), MSA-2 (NSC828583), SN-011 (NSC837082), adavosertib (NSC754352), prexasertib (NSC758257), carboplatin (NSC241240) and oxaliplatin (NSC266046), were obtained from the National Cancer Institute (NCI) Developmental Therapeutics Program Chemical Repository (21). The FDA-approved anticancer drug set is available from the Developmental Therapeutics Program at https://dtp.cancer.gov/organization/dscb/obtaining/. […] The stock solutions were prepared in dimethyl sulfoxide (DMSO, Sigma-Aldrich, St. Louis, MO, cat. D2650), except for the platinum compounds which were prepared in saline (Quality Biological, Gaithersburg, MD, cat. 114-055-101), at 800-fold the tested concentration and stored at -70 degrees C prior to their use. All drugs and investigational agents were tested over a range starting from a high concentration at or near the clinical Cmax and decreasing in half-log increments. If the clinical Cmax for an agent had not been determined, the highest concentration tested was 10 microM, except for SN-38, which was tested at a high concentration of 1 microM.
Cell Culture. All cells were maintained in an incubator at 37 degrees C and 5% CO2 with 95% humidity. The PDC lines were cultured according to standard operating procedures established by the NCI PDMR (https://pdmr.cancer.gov). Table 3 of the manuscript, lists the cell lines along with the number of the three cell types plated to form the mct-spheroids and media for tumor cell growth. After thawing, all PDC lines, except 997537-175-T-J1-PDC and 415267-285-R-J2-PDC, were cultured in Matrigel-coated flasks prepared with a working solution of 1X Ham's F-12 nutrient mix, without supplementation (Thermo Fisher Scientific, cat. 11765054), 100 U/mL penicillin-streptomycin (Thermo Fisher Scientific, cat. 15140122), and 2.5% Matrigel (Corning Inc., Corning, NY, cat. 354248) for the first three passages. The two PDC lines 997537-175-T-J1-PDC and 415267-285-R-J2-PDC were cultured on uncoated flasks. The 857933-349-R-J2-PDC line was cultured in 6C/Colon 1B media containing advanced DMEM/F-12 (Thermo Fisher Scientific, cat. 12634028), 10 mM HEPES (Thermo Fisher Scientific, cat. 15630080), 1X GlutaMAX supplement (Thermo Fisher Scientific, cat. 35050061), 0.1 mg/mL primocin (InvivoGen, San Diego, CA, cat. ant-pm-2), 10% defined fetal bovine serum, heat inactivated (HyClone Laboratories Inc., Logan, UT, cat. SH30070.03HI), 50% L-WRN conditioned media (ATCC, cat. CRL-3276), 1.25 mM N-Acetyl-L-cysteine (Sigma-Aldrich, cat. A9165), 10 mM nicotinamide (Sigma-Aldrich, cat. N0636), 1X B-27 supplement (Thermo Fisher Scientific, cat. 17504044), 1X N-2 supplement (Thermo Fisher Scientific, cat. […]

[1] = second compound 0.0316 µM, first compound 0.0316 µM
[2] = second compound 0.0316 µM, first compound 0.1 µM
[3] = second compound 0.0316 µM, first compound 0.316 µM
[4] = second compound 0.0316 µM, first compound 1 µM
[5] = second compound 0.0316 µM, first compound 3.16 µM
[6] = second compound 0.0316 µM, first compound 10 µM
[7] = second compound 0.1 µM, first compound 0.0316 µM
[8] = second compound 0.1 µM, first compound 0.1 µM
[9] = second compound 0.1 µM, first compound 0.316 µM
[10] = second compound 0.1 µM, first compound 1 µM
[11] = second compound 0.1 µM, first compound 3.16 µM
[12] = second compound 0.1 µM, first compound 10 µM
[13] = second compound 0.316 µM, first compound 0.0316 µM
[14] = second compound 0.316 µM, first compound 0.1 µM
[15] = second compound 0.316 µM, first compound 0.316 µM
[16] = second compound 0.316 µM, first compound 1 µM
[17] = second compound 0.316 µM, first compound 3.16 µM
[18] = second compound 0.316 µM, first compound 10 µM
[19] = second compound 1 µM, first compound 0.0316 µM
[20] = second compound 1 µM, first compound 0.1 µM
[21] = second compound 1 µM, first compound 0.316 µM
[22] = second compound 1 µM, first compound 1 µM
[23] = second compound 1 µM, first compound 3.16 µM
[24] = second compound 1 µM, first compound 10 µM
[25] = second compound 3.16 µM, first compound 0.0316 µM
[26] = second compound 3.16 µM, first compound 0.1 µM
[27] = second compound 3.16 µM, first compound 0.316 µM
[28] = second compound 3.16 µM, first compound 1 µM
[29] = second compound 3.16 µM, first compound 3.16 µM
[30] = second compound 3.16 µM, first compound 10 µM
[31] = second compound 10 µM, first compound 0.0316 µM
[32] = second compound 10 µM, first compound 0.1 µM
[33] = second compound 10 µM, first compound 0.316 µM
[34] = second compound 10 µM, first compound 1 µM
[35] = second compound 10 µM, first compound 3.16 µM
[36] = second compound 10 µM, first compound 10 µM
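Further: spheroids exposed to compounds for one week before readout.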
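Wherever viability, T/C is given: percent viability relative to DMSO vehicle wells taken as 100%.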

Work on CCc1cc2c(N3CCc4c(cc(Cn5ccnc5)cc4-c4cn(C)nc4C(F)(F)F)C3=O)ccnc2c(OC)n1 + COC1C(OC(N)=O)C(O)C(Oc2ccc3c(O)c(NC(=O)c4ccc(O)c(CC=C(C)C)c4)c(=O)oc3c2C)OC1(C)C yielded an IC50 (second compound 0.0316 µM) of over 10 µM, an IC50 (second compound 0.1 µM) of over 10 µM and an IC50 (second compound 0.316 µM) of over 10 µM. It also gave an IC50 (second compound 1 µM) of 9.75 µM, an IC50 (second compound 3.16 µM) of 9.64 µM and an IC50 (second compound 10 µM) of 8.33 µM. It also gave a viability, T/C [1] of 97.2%, a viability, T/C [2] of 108% and a viability, T/C [3] of 111%. For the same molecule, the viability, T/C [4] was 106%, the viability, T/C [5] was 80% and the viability, T/C [6] was 52.8%. It also gave a viability, T/C [7] of 106%, a viability, T/C [8] of 108% and a viability, T/C [9] of 92.9%. The viability, T/C [10] was 106%, the viability, T/C [11] was 77% and the viability, T/C [12] was 50.3%. For the same molecule, the viability, T/C [13] was 96%, the viability, T/C [14] was 103% and the viability, T/C [15] was 115%. The viability, T/C [16] was 102%, the viability, T/C [17] was 66.5% and the viability, T/C [18] was 53.8%. For the same molecule, the viability, T/C [19] was 105%, the viability, T/C [20] was 98.7% and the viability, T/C [21] was 99%. For the same molecule, the viability, T/C [22] was 100%, the viability, T/C [23] was 81.4% and the viability, T/C [24] was 49.3%. For the same molecule, the viability, T/C [25] was 106%, the viability, T/C [26] was 100% and the viability, T/C [27] was 103%. It also gave a viability, T/C [28] of 98.2%, a viability, T/C [29] of 74.8% and a viability, T/C [30] of 49.2%. For the same molecule, the viability, T/C [31] was 109%, the viability, T/C [32] was 97.7% and the viability, T/C [33] was 102%. It also gave a viability, T/C [34] of 93.1%, a viability, T/C [35] of 67.7% and a viability, T/C [36] of 46.7%.
For COc1cc2cc(C(=O)CCC(=O)O)sc2cc1OC + COC1C(OC(N)=O)C(O)C(Oc2ccc3c(O)c(NC(=O)c4ccc(O)c(CC=C(C)C)c4)c(=O)oc3c2C)OC1(C)C, the IC50 (second compound 0.0316 µM) was over 10 µM, the IC50 (second compound 0.1 µM) was over 10 µM and the IC50 (second compound 0.316 µM) was over 10 µM. It also gave an IC50 (second compound 1 µM) of over 10 µM, an IC50 (second compound 3.16 µM) of over 10 µM and an IC50 (second compound 10 µM) of over 10 µM. For the same molecule, the viability, T/C [1] was 110%, the viability, T/C [2] was 103% and the viability, T/C [3] was 102%. The viability, T/C [4] was 105%, the viability, T/C [5] was 102% and the viability, T/C [6] was 113%. For the same molecule, the viability, T/C [7] was 95.4%, the viability, T/C [8] was 101% and the viability, T/C [9] was 109%. For the same molecule, the viability, T/C [10] was 97.7%, the viability, T/C [11] was 103% and the viability, T/C [12] was 97.2%. The viability, T/C [13] was 115%, the viability, T/C [14] was 94.9% and the viability, T/C [15] was 107%. It also gave a viability, T/C [16] of 95.1%, a viability, T/C [17] of 101% and a viability, T/C [18] of 101%. The viability, T/C [19] was 102%, the viability, T/C [20] was 88.2% and the viability, T/C [21] was 106%. The viability, T/C [22] was 98.7%, the viability, T/C [23] was 99.7% and the viability, T/C [24] was 106%. For the same molecule, the viability, T/C [25] was 107%, the viability, T/C [26] was 99.9% and the viability, T/C [27] was 109%. For the same molecule, the viability, T/C [28] was 102%, the viability, T/C [29] was 99.6% and the viability, T/C [30] was 113%. The viability, T/C [31] was 109%, the viability, T/C [32] was 91.7% and the viability, T/C [33] was 102%. For the same molecule, the viability, T/C [34] was 104%, the viability, T/C [35] was 97% and the viability, T/C [36] was 102%.
Molecule O=C(Nc1ccc(O)c(NS(=O)(=O)c2ccc(F)cc2)c1)c1ccc(-c2ccccc2)cc1 + COC1C(OC(N)=O)C(O)C(Oc2ccc3c(O)c(NC(=O)c4ccc(O)c(CC=C(C)C)c4)c(=O)oc3c2C)OC1(C)C has an IC50 (second compound 0.0316 µM) of over 10 µM, an IC50 (second compound 0.1 µM) of over 10 µM and an IC50 (second compound 0.316 µM) of over 10 µM. For the same molecule, the IC50 (second compound 1 µM) was over 10 µM, the IC50 (second compound 3.16 µM) was over 10 µM and the IC50 (second compound 10 µM) was over 10 µM. The viability, T/C [1] was 103%, the viability, T/C [2] was 103% and the viability, T/C [3] was 104%. The viability, T/C [4] was 109%, the viability, T/C [5] was 118% and the viability, T/C [6] was 97.8%. It also gave a viability, T/C [7] of 102%, a viability, T/C [8] of 100% and a viability, T/C [9] of 103%. For the same molecule, the viability, T/C [10] was 95.1%, the viability, T/C [11] was 99.6% and the viability, T/C [12] was 118%. For the same molecule, the viability, T/C [13] was 101%, the viability, T/C [14] was 98.3% and the viability, T/C [15] was 91.3%. For the same molecule, the viability, T/C [16] was 93.8%, the viability, T/C [17] was 106% and the viability, T/C [18] was 92.2%. It also gave a viability, T/C [19] of 105%, a viability, T/C [20] of 107% and a viability, T/C [21] of 101%. For the same molecule, the viability, T/C [22] was 116%, the viability, T/C [23] was 101% and the viability, T/C [24] was 105%. It also gave a viability, T/C [25] of 102%, a viability, T/C [26] of 105% and a viability, T/C [27] of 100%. For the same molecule, the viability, T/C [28] was 105%, the viability, T/C [29] was 107% and the viability, T/C [30] was 93.9%. The viability, T/C [31] was 108%, the viability, T/C [32] was 100% and the viability, T/C [33] was 98.5%. The viability, T/C [34] was 103%, the viability, T/C [35] was 107% and the viability, T/C [36] was 88.8%.
